Source: patent publication US5538712A, “Cyclopentadienylcarbonyl 99MTC complexes, process for their production as well as their use in diagnostics” (Institut Fur Diagnostikforschung GmbH/an der Freien …, priority 1990, dated 1996)
Read-outs that look alike come from different tables or passages of the source.

Legend:
[1] = In vivo SPECT study of cerebral blood flow in rabbits; set-up: species or system rabbits (New Zealander); details: for contrast [brain/background]: rabbit SPECT, 8 minutes p.i., 15 minutes p.i.; for contrast [brain/background] / cerebral uptake: HM-PAO 59 MBq, cytectrene 14 MBq; for cerebral uptake: rabbit, i.v., test from 8 minutes p.i., from 15 minutes p.i., 2400 seconds
Procedure: In an in vivo study on rabbits (New Zealander, breeding by Schering AG Berlin, approximately 4 kg, male), the cerebral blood flow of commercially available HM-PAO was compared with the N-methyl-piperidin-4-ol-cytectrenecarboxylic acid ester (produced analogously to example 6).
The study was made with a SPECT camera of Apex 409 type.
After nembutal anesthesia, the animal was intravenously administered 1 ml of an isotonic, aqueous, sterile solution of ^99m Tc-HMPAO or said cytectrene derivative.
The recording technique and the results are described by the following table.

[2] = cited from earlier work
[3] = clinical use, because of insufficient stability; cited from earlier work
[4] = Organ distribution in mice of 99mTc-acetylcymantrene; type: in vivo
Procedure: (§1) The organ distributions in mice and rats as well as partially in rabbits were tested by the technetium-labeled cytectrene derivatives. The organ distribution of the ^99m Tc-labeled cytectrene derivatives is a function of the substituent on the cyclopentadienyl ring system.

[5] = Chemical stability, decomposition by chromatography; type: physicochemical; details: after 24 hours, chromatographically
Text: This lipophilic ^99m Tc-compound can be obtained in pure form by elution of the corresponding silica gel fraction (RF =0.36), e.g., with ethanol. The radiochemical purity is established by rechromatography of the eluate.

[6] = Organ distribution of Tc-labeled cytectrene derivatives vs pertechnetate (FIG. 1); type: in vivo, mice and rats, partially rabbits; details: pertechnetate for comparison
Procedure: as §1
FIG. 1 indicates the organ distribution of various cytectrene derivatives. For comparison, the organ distribution of pertechnetate was also recorded in this table. From the organ concentrations, it can clearly be recognized that the organ distribution of the cytectrene derivatives drastically differs from the distribution after administration of pertechnetate. With pertechnetate, the organ with the highest radioactivity concentration is blood (2.6% of dose/% body weight). On the other hand, the ^99m Tc cytectrene derivatives show a pronounced affinity for other, respectively different organs. The affinity for the individual organ is clearly dependent on the side chain of the cytectrene compound.

[7] = 99mTc concentration in rat brain and brain/blood concentration quotient (FIGS. 2 and 3); type: in vivo
Procedure: FIG. 2 graphically illustrates the results of tests on ^99m Tc concentration in the brain (% dose/% weight). In the experiments, the rats (n=4) intravenously received about 5 μCi of the Tc-99-labeled ester dissolved in 0.1 ml of EtOH/0.9% NaCl per animal. The esters, i.e., 4-pip-ester, 3-pip-ester and quin.-ester, were obtained from cytectrene-carboxylic acid and the following, respectively: 4-hydroxy-N-(methyl)-piperidine, 3-hydroxy-N-(methyl)-piperidine and 3-quinuclidinol. 15 minutes after HM-PAO administration, the brain concentration is at 1.7% dose/% weight. […] The rats (n=4) intravenously received about 5 μCi of the Tc-99-labeled ester dissolved in 0.1 ml of EtOH/0.9% NaCl per animal. The esters tested were obtained from cytectrenecarboxylic acid and 4-hydroxy-N-(methyl)-piperidine, 3-hydroxy-N-(methyl)-piperidine and 3-quinuclidinol, respectively. 15 minutes after HM-PAO administration, the brain/blood quotient is at 1.5:1.

## C/C(=N\O)C(C)NCC(C)(C)CNC(C)/C(C)=N/O (centres unmarked) [HM-PAO, hexamethyl-propylenamine oxime]
[1]
  contrast [brain/background]: 0.98
  cerebral uptake: 5.9 % of the administered activity
[2]; comparable measurements for known compounds, L. Bacciottini et al. 1990
  concentration in the brain: around 1.7 % dose/% body weight
[2]; rat, 15 minutes after HM-PAO administration
  99mTc concentration in the brain: 1.7 % dose/% weight
[3]
  time after labeling within which it has to be administered: ≤ 30 min

## CC(=O)[C]1([Tc](=[C]=O)(=[C]=O)=[C]=O)C=CC=C1 [Example 1a, Tc-99m Acetyl-cytectrene]
[4]
  organ distribution: preferred concentration in liver and suprarenal glands
[5]
  chemical stability of the labeled compound: chemically stable, since after 24 hours, no decomposition is chromatographically detectable
[5]; listed as Example 1b
  chemical stability of the labeled compound: chemically stable, after 24 hours, no decomposition is chromatographically detectable

## [O]=[99Tc](=[O])(=[O])[O-] [pertechnetate, ^99m Tc-pertechnetate]
[6]
  radioactivity concentration in blood (organ with the highest concentration): 2.6 % of dose/% body weight

## cyclopentadienylcarboxylic acid-(N-methyl-piperidinol)-4-ester-^99m technetium-tricarbonyl complex
[1]
  contrast [brain/background]: 0.98
  cerebral uptake: 7.5 % of the administered activity
[1]; rabbits, 14 MBq, compared with HM-PAO complex
  visual delimitability of the brain in SPECT tests: more clearly visual delimitability of the brain in SPECT tests
[7]; compared with HM-PAO complexes
  concentration ratio of brain/blood, improvement factor over HM-PAO: ~10 factor
[7]; i.v., about 5 μCi
  concentration in the brain: about 4 % dose/% body weight
